Results: patent US20070232657A1, “NOVEL COMPOUNDS” (GLAXO GROUP LIMITED, priority 2006, published 2007)

Experiments:
[1] = system: longitudinal muscle strips from the rat gastric forestomach; test: Rat isolated forestomach assay (EFS-evoked contractions)
Description: Rat Isolated Forestomach Assay
Longitudinal muscle strips with mucosa partially removed were,obtained from the rat gastric forestomach, and suspended under an initial “load” of 1 g for isometric recording between two platinum ring electrodes, in 5 or 10 ml tissue baths containing Krebs solution bubbled with 5% CO2/95% O2 and maintained at 37° C. Following an equilibration period of 30 min, during which time the tissues were flushed every 15 minutes with fresh Krebs solution, tissues were stimulated with electrical field stimulation (EFS) [50V for 10 ml bath, 25V for 5 ml bath, at 2.5 Hz 0.5 ms pulse duration, for 10 s, every 1 min]. The tissues were left stimulating for at least 30 min. After obtaining consistent responses to EFS, the test compound was added to the bathing solution, each dose left in contact for at least 10 minutes. The % potentiation of contractions to EFS were measured as the area of 4 maximum EFS contractions after addition of compound relative to the area of 4 maximum EFS contractions before addition of the lowest concentration of compound. Data are expressed as means standard error of the mean; n-values are per animal used.

5HT2b = 5HT2b (Homo sapiens, UniProt P41595); test: 5HT2b antagonist activity (no method given)
human 5-HT4a receptor [2] = target: T1, human 5-HT4a receptor (Homo sapiens, UniProt Q13639); test: Yeast functional 5-HT4a agonist assay; assay type: cell-based; parameters: expressed in transfected cells; host or cells: Saccharomyces cerevisiae strain MMY23 (expression cassette integrated at the ura3 locus); details: n=9
Source text: Yeast Functional 5-HT4a Agonist Assay
Yeast (Saccharomyces cerevisiae) cells expressing the human 5-HT4a receptor were generated by integration of an expression cassette into the ura3 chromosomal locus of yeast strain MMY23. This cassette consisted of DNA sequence encoding the human 5-HT4a receptor flanked by the yeast glyceraldehyde-3-phosphate dehydrogenase (GPD) promoter to the 5′ end of 5-HT4a and a yeast transcriptional terminator sequence to the 3′ end of 5-HT4a. MMY23 expresses a yeast/mammalian chimeric G-protein alpha subunit in which the C-terminal 5 amino acids of Gpa1 are replaced with the C-terminal 5 amino acids of human Gil (as described in Brown et al. (2000), Yeast 16:11-22). Cells were grown at 30° C. in liquid Synthetic Complete (SC) yeast media (Guthrie and Fink (1991), Methods in Enzymology, Vol.194) lacking uracil, tryptophan, adenine and leucine to late logarithmic phase (approximately 6 OD600/ml).
Agonists were prepared as 10 mM stocks in DMSO. EC50 values (the concentration required to produce 50% maximal response) were estimated using serial dilutions of between 3- and 5-fold (BiomekFX, Beckman) into DMSO. pEC50 corresponds to negative log10 of molar EC50. […] After incubation at 30° C. for 24 hours, fluorescence resulting from degradation of FDGlu to fluorescein due to exoglucanase, an endogenous yeast enzyme produced during agonist-stimulated cell growth, was determined (excitation wavelength: 485 nm; emission wavelength: 535 nm) using a Spectrofluor (Tecan) or similar microtitre plate reader. Fluorescence was plotted against compound concentration and iteratively curve fitted using a four parameter fit to generate a concentration effect value. […]
Where Max[compound X] and Min[compound X] are the fitted maximum and minimum respectively from the concentration effect curve for compound X, and Max[5-HT] and Min[5-HT] are the fitted maximum and minimum respectively from the concentration effect curve for 5-hydroxytryptamine. Equieffective molar ratio (EMR) values were calculated from the equation: EMR=EC50 [compound X]/EC50 [5-HT] […]

human 5-HT4a receptor [3] = target: T1, human 5-HT4a receptor; test: Mammalian functional 5-HT4a agonist assay (HEK-293-MSR-II cells, FLIPR); assay type: cell-based; parameters: expressed in transfected cells; host or cells: HEK-293-MSR-II cells transduced with BacMam viruses
Description: Mammalian Functional 5-HT4a Agonist Assay
Human embryonic kidney cells stably expressing the human macrophage scavenger receptor type II (HEK-293-MSR-II cells) were established in-house (Lysko PG et al., J Pharmacol Exp Ther. 289(3):1277-85). These cells were grown in humidified conditions in Minimum Essential Medium containing 10% fetal calf serum (FCS), 1× non-essential amino acids, 2 mM L-glutamine and 0.4 mg/ml geneticin at 37° C./5% CO2.
BacMam plasmid constructs for the production of viruses for expression in mammalian cells were generated as described (Condreay J P et al., Proc. Natl. Acad. Sci. 96:127-132, Ames R et al., Receptors Channels 10(3-4):117-24). […]
The next day 50 μl Fluo4am dye (at 6 μM in Tyrodes buffer containing 1.5 mM calcium chloride and 2.5mM probenicid) was added to each well and incubated at 37° C./5% CO2 for one hour. […] A Fluorimetric Imaging Plate Reader (FLIPR) was used to add the compounds to the cells (50 μl per well) and to determine peak fluorescence emitted per well over the whole assay period.

T1 sequence (Q13639 1-387 isoform Q13639-2): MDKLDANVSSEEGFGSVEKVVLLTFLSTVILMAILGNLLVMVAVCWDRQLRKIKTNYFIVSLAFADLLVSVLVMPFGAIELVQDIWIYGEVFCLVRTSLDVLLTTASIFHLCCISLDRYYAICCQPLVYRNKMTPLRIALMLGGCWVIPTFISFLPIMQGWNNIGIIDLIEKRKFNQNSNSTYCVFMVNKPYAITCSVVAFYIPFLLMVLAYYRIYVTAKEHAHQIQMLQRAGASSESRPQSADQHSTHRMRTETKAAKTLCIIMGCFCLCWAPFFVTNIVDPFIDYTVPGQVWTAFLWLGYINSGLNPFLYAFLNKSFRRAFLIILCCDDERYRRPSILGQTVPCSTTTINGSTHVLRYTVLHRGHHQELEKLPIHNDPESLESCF
Chain of 5HT2b (P41595 whole entry, species assumed): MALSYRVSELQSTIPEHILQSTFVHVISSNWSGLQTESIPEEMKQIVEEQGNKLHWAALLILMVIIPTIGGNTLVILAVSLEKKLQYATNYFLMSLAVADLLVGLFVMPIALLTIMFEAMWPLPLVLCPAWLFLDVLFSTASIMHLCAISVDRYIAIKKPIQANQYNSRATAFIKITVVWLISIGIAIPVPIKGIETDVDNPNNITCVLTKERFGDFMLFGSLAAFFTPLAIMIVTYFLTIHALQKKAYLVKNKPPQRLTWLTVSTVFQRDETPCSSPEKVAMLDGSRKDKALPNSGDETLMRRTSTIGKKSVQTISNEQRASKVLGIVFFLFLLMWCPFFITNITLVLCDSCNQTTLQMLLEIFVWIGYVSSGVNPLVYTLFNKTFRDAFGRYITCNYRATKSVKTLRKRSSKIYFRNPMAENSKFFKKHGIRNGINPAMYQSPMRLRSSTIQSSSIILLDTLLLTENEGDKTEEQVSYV

Row | 5HT2b antagonist activity (5HT2b) | EMR (equieffective molar ratio, EC50 compound/EC50 5-HT) (human 5-HT4a receptor [2]; relative to 5-HT) | Emax (human 5-HT4a receptor [2]; relative to 5-hydroxytryptamine, read-out: Mean efficacy (Emax relative to 5-HT)) [%] | EC50 (human 5-HT4a receptor [2]; yeast cells expressing human 5-HT4a, read-out: Mean pEC50 (converted)) [nM] | EC50 (human 5-HT4a receptor [3]; HEK-293-MSR-II cells, BacMam 5-HT4a + Gα16, n=12, read-out: mean pEC50 (converted)) [nM] | mean efficacy (human 5-HT4a receptor [3]; relative to maximal effect of 5-HT, n=12) [%] | SMILES | gastroprokinetic activity ([1]; in vitro, rat forestomach assay) | % potentiation of contractions to EFS, Mean ([1]; 1 nM E1, n=5) [%] | % potentiation of contractions to EFS, Mean ([1]; 10 nM E1, n=5) [%] | % potentiation of contractions to EFS, Mean ([1]; 100 nM E1, n=5) [%] | % potentiation of contractions to EFS, Mean ([1]; 1 μM E1, n=5) [%] | % potentiation of contractions to EFS, Mean ([1]; 10 μM E1, n=5) [%]
1 | exhibit 5HT2b antagonist activity | – | – | – | – | – | Nc1c(Br)cc(C(=O)NCC2CCN(CC3CCOCC3)CC2)c2c1CCCO2 [(A), 5-amino-6-bromo-N-{[1-(tetrahydro-2H-pyran-4-ylmethyl)-4-piperidinyl]methyl}-3,4-dihydro-2H-chromene-8-carboxamide] | exhibits gastroprokinetic activity | – | – | – | – | –
2 | – | 0.281 | 94 | 0.501 | 2.29 | 70 | Cl.Nc1c(Br)cc(C(=O)NCC2CCN(CC3CCOCC3)CC2)c2c1CCCO2 [Example E1, 5-Amino-6-bromo-N-{[1-(tetrahydro-2H-pyran-4-ylmethyl)-4-piperidinyl]methyl}-3,4-dihydro-2H-chromene-8-carboxamide hydrochloride] | – | 12.89 | 50.62 | 89.57 | 115.46 | 181.32
